Data taken from patent US20210322545A1 (priority 2016, published 2021).

Details: mouse, in vivo

CN[C@@H](C)C(=O)N[C@H](C(=O)N1CCC[C@H]1c1nc(C(=O)c2ccc(F)cc2)cs1)C1CCCCC1 [LCL161]
body weight in combination treatment cohort: fully recovered following the last treatment
